ChEMBL document CHEMBL1909046, “DrugMatrix in vitro pharmacology data”

Legend:
[1] = target: T1, Vasoactive intestinal polypeptide receptor 1 (Homo sapiens, UniProt P32241); assay type: cell membranes, Membrane; conditions: ht-29; also: in other assays of this panel Not Active means under 50% inhibition at 10 µM
T1 sequence (P32241 whole entry): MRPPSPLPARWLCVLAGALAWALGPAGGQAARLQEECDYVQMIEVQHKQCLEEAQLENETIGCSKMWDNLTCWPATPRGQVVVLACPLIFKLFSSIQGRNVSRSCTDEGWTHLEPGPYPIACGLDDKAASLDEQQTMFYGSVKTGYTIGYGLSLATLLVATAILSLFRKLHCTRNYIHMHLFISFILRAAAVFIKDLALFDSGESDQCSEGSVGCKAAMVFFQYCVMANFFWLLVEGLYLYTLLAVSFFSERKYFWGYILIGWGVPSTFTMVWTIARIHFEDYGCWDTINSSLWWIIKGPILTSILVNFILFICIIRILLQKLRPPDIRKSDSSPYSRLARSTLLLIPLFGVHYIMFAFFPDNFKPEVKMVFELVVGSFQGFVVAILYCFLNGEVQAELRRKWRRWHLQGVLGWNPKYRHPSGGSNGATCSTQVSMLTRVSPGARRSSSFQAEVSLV

Melanocortin receptor 5 = Melanocortin receptor 5 (Homo sapiens, UniProt P33032); assay type: cell membranes, HEK293, Membrane; conditions: hek293; also: in other assays of this panel Not Active means under 50% inhibition at 10 µM
Melanocortin receptor 5, sequence (P33032 whole entry): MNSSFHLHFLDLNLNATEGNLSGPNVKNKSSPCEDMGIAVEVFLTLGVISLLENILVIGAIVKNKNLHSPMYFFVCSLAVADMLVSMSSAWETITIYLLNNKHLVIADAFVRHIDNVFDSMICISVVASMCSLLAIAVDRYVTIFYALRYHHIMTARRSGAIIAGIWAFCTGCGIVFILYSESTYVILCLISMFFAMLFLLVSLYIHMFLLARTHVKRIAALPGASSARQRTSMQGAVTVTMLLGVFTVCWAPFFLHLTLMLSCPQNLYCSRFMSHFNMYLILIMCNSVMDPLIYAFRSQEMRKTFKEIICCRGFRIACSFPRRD

[2] = target: Aldo-keto reductase family 1 member B1 (Rattus norvegicus, UniProt P07943); assay type: tissue-based, Lens of camera-type eye;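 also: inhibition of aldose reductase enzyme activity, measured with DL-glyceraldehyde as the substrate; in other assays of this panel Not Active means under 50% inhibition at 10 µM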
Cannabinoid receptor 1 = Cannabinoid receptor 1 (Homo sapiens, UniProt P21554); assay type: cell membranes, Membrane; conditions: chem-1; also: in other assays of this panel Not Active means under 50% inhibition at 10 µM
Cannabinoid receptor 1, sequence (P21554 whole entry): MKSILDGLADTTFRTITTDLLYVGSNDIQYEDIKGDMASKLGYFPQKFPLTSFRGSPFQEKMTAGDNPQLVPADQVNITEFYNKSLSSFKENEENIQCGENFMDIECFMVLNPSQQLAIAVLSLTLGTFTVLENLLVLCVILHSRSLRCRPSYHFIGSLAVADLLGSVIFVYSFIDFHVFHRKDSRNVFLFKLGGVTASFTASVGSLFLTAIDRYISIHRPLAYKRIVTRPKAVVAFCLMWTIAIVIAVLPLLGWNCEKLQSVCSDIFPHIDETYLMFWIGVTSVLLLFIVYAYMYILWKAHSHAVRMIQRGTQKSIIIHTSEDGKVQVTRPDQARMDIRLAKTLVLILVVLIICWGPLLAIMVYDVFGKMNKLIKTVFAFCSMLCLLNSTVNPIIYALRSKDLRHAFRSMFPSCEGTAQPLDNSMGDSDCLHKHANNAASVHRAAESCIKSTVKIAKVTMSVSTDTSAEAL

[3] = DRUGMATRIX: Glutamate, Kainate radioligand binding (ligand: [3H] Kainic acid); assay type: cell membranes, Rattus norvegicus, Wistar, Brain, Membrane; conditions: Not Active = under 50% inhibition at 10 µM
[4] = DRUGMATRIX: Potassium Channel [KATP] radioligand binding (ligand: [3H] Glyburide); assay type: cell membranes, Membrane; conditions: hit-t15; Not Active = under 50% inhibition at 10 µM
[5] = target: Protein kinase C alpha type (Homo sapiens, UniProt P17252); assay type: cell-based; conditions: sf9
Melanocortin receptor 4 = Melanocortin receptor 4 (Homo sapiens, UniProt P32245); assay type: cell membranes, Membrane; conditions: hek293; also: in other assays of this panel Not Active means under 50% inhibition at 10 µM
Melanocortin receptor 4, sequence (P32245 whole entry): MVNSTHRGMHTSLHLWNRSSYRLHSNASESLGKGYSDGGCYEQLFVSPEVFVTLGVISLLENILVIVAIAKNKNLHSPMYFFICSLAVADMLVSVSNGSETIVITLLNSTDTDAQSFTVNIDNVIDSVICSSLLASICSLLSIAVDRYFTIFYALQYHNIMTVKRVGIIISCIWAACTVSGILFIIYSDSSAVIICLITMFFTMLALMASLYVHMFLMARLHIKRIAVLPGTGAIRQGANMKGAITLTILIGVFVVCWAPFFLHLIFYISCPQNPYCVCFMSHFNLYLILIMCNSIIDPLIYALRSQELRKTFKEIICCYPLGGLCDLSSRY

[6] = DRUGMATRIX: GABAA, Muscimol, Central radioligand binding (ligand: [3H] Muscimol); assay type: cell membranes, Rattus norvegicus, Wistar, Brain, Membrane; conditions: Not Active = under 50% inhibition at 10 µM
[7] = target: T2, Muscarinic acetylcholine receptor M2 (Homo sapiens, UniProt P08172); assay type: cell membranes, CHO-K1, Membrane; conditions: cho-k1; also: in other assays of this panel Not Active means under 50% inhibition at 10 µM
T2 sequence (P08172 whole entry): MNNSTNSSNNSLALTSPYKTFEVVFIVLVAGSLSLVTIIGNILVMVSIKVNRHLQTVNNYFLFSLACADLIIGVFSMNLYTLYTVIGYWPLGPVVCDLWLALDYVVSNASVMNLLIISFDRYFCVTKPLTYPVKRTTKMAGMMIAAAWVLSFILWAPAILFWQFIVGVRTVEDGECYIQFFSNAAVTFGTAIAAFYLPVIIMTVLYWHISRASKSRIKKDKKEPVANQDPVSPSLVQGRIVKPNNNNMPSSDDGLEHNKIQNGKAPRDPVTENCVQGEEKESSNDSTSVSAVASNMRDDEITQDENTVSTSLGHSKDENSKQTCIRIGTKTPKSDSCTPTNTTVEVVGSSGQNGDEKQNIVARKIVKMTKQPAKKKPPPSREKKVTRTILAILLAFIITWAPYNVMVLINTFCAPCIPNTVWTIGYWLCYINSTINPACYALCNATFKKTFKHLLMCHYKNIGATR

[8] = DRUGMATRIX: Phorbol Ester radioligand binding (ligand: [3H] PDBu); assay type: cell membranes, Mus musculus, ICR, Brain, Membrane; conditions: Not Active = under 50% inhibition at 10 µM
Substance-K receptor = target: T3, Substance-K receptor (Homo sapiens, UniProt P21452); assay type: cell membranes, CHO, Membrane; conditions: cho; also: in other assays of this panel Not Active means under 50% inhibition at 10 µM
T3 sequence (P21452 whole entry): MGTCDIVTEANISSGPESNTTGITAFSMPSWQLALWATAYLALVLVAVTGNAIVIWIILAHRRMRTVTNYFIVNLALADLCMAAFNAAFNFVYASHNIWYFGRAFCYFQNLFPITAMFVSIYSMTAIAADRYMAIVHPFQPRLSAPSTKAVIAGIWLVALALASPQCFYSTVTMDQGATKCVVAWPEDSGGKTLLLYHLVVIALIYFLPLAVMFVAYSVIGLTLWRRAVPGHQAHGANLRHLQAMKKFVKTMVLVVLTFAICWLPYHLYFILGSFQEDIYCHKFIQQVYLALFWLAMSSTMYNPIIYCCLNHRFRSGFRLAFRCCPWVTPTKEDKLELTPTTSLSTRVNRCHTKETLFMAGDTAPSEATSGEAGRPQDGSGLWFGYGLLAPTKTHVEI

[9] = target: 5-hydroxytryptamine receptor 1B (Rattus norvegicus, UniProt P28564); assay type: cell membranes, Wistar, Cerebral cortex, Membrane; also: in other assays of this panel Not Active means under 50% inhibition at 10 µM
5-hydroxytryptamine receptor 1B, sequence (P28564 whole entry): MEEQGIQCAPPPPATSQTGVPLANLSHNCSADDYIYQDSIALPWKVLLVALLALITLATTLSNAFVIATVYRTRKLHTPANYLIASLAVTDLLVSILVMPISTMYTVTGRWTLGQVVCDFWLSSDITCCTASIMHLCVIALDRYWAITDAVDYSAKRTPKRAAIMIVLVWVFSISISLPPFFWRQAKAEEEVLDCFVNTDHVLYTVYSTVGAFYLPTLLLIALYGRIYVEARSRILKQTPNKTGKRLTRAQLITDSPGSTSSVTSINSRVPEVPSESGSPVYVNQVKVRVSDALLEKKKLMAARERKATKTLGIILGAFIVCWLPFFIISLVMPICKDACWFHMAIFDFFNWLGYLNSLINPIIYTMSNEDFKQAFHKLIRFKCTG

[10] = target: Protein phosphatase 3 catalytic subunit alpha (Homo sapiens, UniProt Q08209); parameters: species or system Escherichia coli
[11] = target: T4, Neuropeptide Y receptor type 2 (Homo sapiens, UniProt P49146); assay type: cell membranes, Membrane; conditions: kan-ts; also: in other assays of this panel Not Active means under 50% inhibition at 10 µM
T4 sequence (P49146 whole entry): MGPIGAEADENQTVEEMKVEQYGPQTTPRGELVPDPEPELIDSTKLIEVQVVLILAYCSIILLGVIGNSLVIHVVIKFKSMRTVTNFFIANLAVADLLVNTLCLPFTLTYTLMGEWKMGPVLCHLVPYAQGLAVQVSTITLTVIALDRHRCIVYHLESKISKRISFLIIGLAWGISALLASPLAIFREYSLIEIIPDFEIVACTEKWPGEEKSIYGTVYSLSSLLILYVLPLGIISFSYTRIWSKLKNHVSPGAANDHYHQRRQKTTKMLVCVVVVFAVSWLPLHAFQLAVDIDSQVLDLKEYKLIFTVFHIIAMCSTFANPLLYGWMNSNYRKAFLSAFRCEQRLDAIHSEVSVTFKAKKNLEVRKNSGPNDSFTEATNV

[12] = DRUGMATRIX: Tumor Necrosis Factor (TNF), Non-Selective radioligand binding (ligand: [125I] TNF-alpha); assay type: cell membranes, Membrane; conditions: u-937; Not Active = under 50% inhibition at 10 µM
[13] = DRUGMATRIX: ATPase, Na+/K+ enzyme inhibition (substrate: ATP); assay type: tissue-based, Sus scrofa, Heart; conditions: Not Active = under 50% inhibition at 10 µM

Nc1nnc(-c2cccc(Cl)c2Cl)c(N)n1 [LAMOTRIGINE]
Not Active: IC50 [1] | IC50 (Melanocortin receptor 5) | IC50 [2] | IC50 (Cannabinoid receptor 1) | IC50 [3] | Ki [3] | IC50 [4] | Ki [4] | IC50 [5] | IC50 (Melanocortin receptor 4) | IC50 [6] | Ki [6] | IC50 [7] | IC50 [8] | Ki [8] | IC50 (Substance-K receptor) | IC50 [9] | IC50 [10] | IC50 [11] | IC50 [12] | Ki [12] | IC50 [13] | Ki [13]

CCC[C@@H]1C[C@@H](C(=O)N[C@@H]([C@H]2O[C@H](SC)[C@H](O)[C@@H](O)[C@H]2O)[C@@H](C)O)N(C)C1 [LINCOMYCIN]
Not Active: IC50 [1] | IC50 (Melanocortin receptor 5) | IC50 [2] | IC50 (Cannabinoid receptor 1) | IC50 [3] | Ki [3] | IC50 [4] | Ki [4] | IC50 [5] | IC50 (Melanocortin receptor 4) | IC50 [6] | Ki [6] | IC50 [7] | IC50 [8] | Ki [8] | IC50 (Substance-K receptor) | IC50 [9] | IC50 [10] | IC50 [11] | IC50 [12] | Ki [12] | IC50 [13] | Ki [13]

COS(C)(=O)=O [METHANESULFONIC ACID METHYL ESTER]
Not Active: IC50 [1] | IC50 (Melanocortin receptor 5) | IC50 [2] | IC50 (Cannabinoid receptor 1) | IC50 [3] | Ki [3] | IC50 [4] | Ki [4] | IC50 [5] | IC50 (Melanocortin receptor 4) | IC50 [6] | Ki [6] | IC50 [7] | IC50 [8] | Ki [8] | IC50 (Substance-K receptor) | IC50 [9] | IC50 [10] | IC50 [11] | IC50 [12] | Ki [12] | IC50 [13] | Ki [13]

COC(=O)c1ccc(O)cc1 [METHYLPARABEN]
Not Active: IC50 [1] | IC50 (Melanocortin receptor 5) | IC50 [2] | IC50 (Cannabinoid receptor 1) | IC50 [3] | Ki [3] | IC50 [4] | Ki [4] | IC50 [5] | IC50 (Melanocortin receptor 4) | IC50 [6] | Ki [6] | IC50 [7] | IC50 [8] | Ki [8] | IC50 (Substance-K receptor) | IC50 [9] | IC50 [10] | IC50 [11] | IC50 [12] | Ki [12] | IC50 [13] | Ki [13]

C[C@](N)(Cc1ccc(O)cc1)C(=O)O [METYROSINE]
Not Active: IC50 [1] | IC50 (Melanocortin receptor 5) | IC50 [2] | IC50 (Cannabinoid receptor 1) | IC50 [3] | Ki [3] | IC50 [4] | Ki [4] | IC50 [5] | IC50 (Melanocortin receptor 4) | IC50 [6] | Ki [6] | IC50 [7] | IC50 [8] | Ki [8] | IC50 (Substance-K receptor) | IC50 [9] | IC50 [10] | IC50 [11] | IC50 [12] | Ki [12] | IC50 [13] | Ki [13]
